ChEMBL document CHEMBL1201862, “PubChem BioAssay data set” (2004)
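1) Cells in 96-well plates. 2) Compound, 48 h, 5 concentrations. 3) Linear interpolation between surrounding doses. 4) Unreached endpoint = highest concentration. GI50 marks 50% less growth.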 Calls of active or inactive are those of the source. Rule as the data show it: active = GI50 up to about 1.1 µM and inactive = higher.

Tests used:
Assay in all cases: NCI tumour cell line growth inhibition, 48 h
HCT-116 = tested on: HCT-116
MDA-MB-435 = tested on: MDA-MB-435
CCRF-CEM = tested on: CCRF-CEM
SNB-19 = tested on: SNB-19
HOP-92 = tested on: HOP-92
SW-620 = tested on: SW-620
SF-268 = tested on: SF-268
SN12C = tested on: SN12C
U-251 = tested on: U-251
NCI-H23 = tested on: NCI-H23
NCI-H522 = tested on: NCI-H522
UACC-257 = tested on: UACC-257
SK-MEL-2 = tested on: SK-MEL-2
COLO 205 = tested on: COLO 205
M14 = tested on: M14
SF-539 = tested on: SF-539
NCI-H460 = tested on: NCI-H460
CAKI-1 = tested on: CAKI-1
OVCAR-4 = tested on: OVCAR-4
UO-31 = tested on: UO-31

| SMILES | GI50 (HCT-116) | GI50 (MDA-MB-435) | GI50 (CCRF-CEM) | GI50 (SNB-19) | GI50 (HOP-92) | GI50 (SW-620) | GI50 (SF-268) | GI50 (SN12C) | GI50 (U-251) | GI50 (NCI-H23) | GI50 (NCI-H522) | GI50 (UACC-257) | GI50 (SK-MEL-2) | GI50 (COLO 205) | GI50 (M14) | GI50 (SF-539) | GI50 (NCI-H460) | GI50 (CAKI-1) | GI50 (OVCAR-4) | GI50 (UO-31) |
| --- | --- | --- | --- | --- | --- | --- | --- | --- | --- | --- | --- | --- | --- | --- | --- | --- | --- | --- | --- | --- |
| Cc1cccc2c(=O)c3c(O)cc4c(c3n(C)c12)C=CC(C)(C)O4 | 58.9 µM (inactive) | 70.5 µM (inactive) | 22.5 µM (inactive) | > 100 µM (inactive) | 21.6 µM (inactive) | > 100 µM (inactive) | > 100 µM (inactive) | > 100 µM (inactive) | > 100 µM (inactive) | 33 µM (inactive) | > 100 µM (inactive) | 60.1 µM (inactive) | > 100 µM (inactive) | 29 µM (inactive) | 28.3 µM (inactive) | 87.5 µM (inactive) | 31.2 µM (inactive) | > 100 µM (inactive) | 43.9 µM (inactive) |  |
| O=C1C(Cl)=C(N[C@@H](Cc2ccccc2)C(=O)OCc2ccccc2)C(=O)c2c(O)ccc(O)c21 | 1.65 µM (inactive) | 3.17 µM (inactive) | 0.485 µM (active) | 5.81 µM (inactive) | 6.3 µM (inactive) | 5.65 µM (inactive) | 2.91 µM (inactive) | 3.93 µM (inactive) | 3.01 µM (inactive) | 4.42 µM (inactive) | 6.41 µM (inactive) | > 10 µM (inactive) | 6.7 µM (inactive) | 2.28 µM (inactive) | 3.8 µM (inactive) | 2.42 µM (inactive) | 4.59 µM (inactive) | > 10 µM (inactive) | 3.31 µM (inactive) |  |
| CC1(C)[C@H]2CC[C@@]13C(=O)N1C(=O)O[C@@H]([C@H]1Cl)C(Cl)(COCc1ccccc1)C(=O)OCCO[C@H]3C2 (stereo partly drawn) | 37.8 µM (inactive) | 42.8 µM (inactive) | 38.5 µM (inactive) | > 100 µM (inactive) | > 100 µM (inactive) | 66.8 µM (inactive) | > 100 µM (inactive) |  | 39.4 µM (inactive) | 40.9 µM (inactive) | 34.8 µM (inactive) | 48.9 µM (inactive) | 85.5 µM (inactive) | 18 µM (inactive) | 69.2 µM (inactive) | > 100 µM (inactive) | 53.6 µM (inactive) | > 100 µM (inactive) | 40.6 µM (inactive) | 96.4 µM (inactive) |
| CC1(C)C(O)c2ccccc2OC1N1CCN(C2Oc3ccccc3C(O)C2(C)C)CC1 (stereo not drawn) | > 100 µM (inactive) | > 100 µM (inactive) | > 100 µM (inactive) | > 100 µM (inactive) | > 100 µM (inactive) | > 100 µM (inactive) | > 100 µM (inactive) | > 100 µM (inactive) | > 100 µM (inactive) | > 100 µM (inactive) | > 100 µM (inactive) | > 100 µM (inactive) |  | > 100 µM (inactive) | > 100 µM (inactive) | > 100 µM (inactive) | > 100 µM (inactive) | > 100 µM (inactive) | > 100 µM (inactive) | > 100 µM (inactive) |
| CCOC(=O)/C(=C\NC[C@@H](C)O)c1nc2ccccc2[nH]1 | > 100 µM (inactive) | > 100 µM (inactive) |  | > 100 µM (inactive) | 72.9 µM (inactive) | > 100 µM (inactive) | 60.7 µM (inactive) | 93.1 µM (inactive) |  | 54.5 µM (inactive) | 40.3 µM (inactive) | 56 µM (inactive) |  | 69.5 µM (inactive) | 56 µM (inactive) | > 100 µM (inactive) | 33.3 µM (inactive) | > 100 µM (inactive) | 83.8 µM (inactive) | 0.33 µM (active) |
| Cc1nnc2c3c(-c4ccccc4)c(-c4ccccc4)oc3nc(N(C)C)n12 | 24.8 µM (inactive) | 36.5 µM (inactive) | 29.6 µM (inactive) | > 100 µM (inactive) | > 100 µM (inactive) | 44.6 µM (inactive) | 39.5 µM (inactive) |  | 51.2 µM (inactive) | 54.5 µM (inactive) | 97.9 µM (inactive) | 36.1 µM (inactive) |  | 64.4 µM (inactive) | 61.2 µM (inactive) | 86.5 µM (inactive) |  | > 100 µM (inactive) | > 100 µM (inactive) | 21.4 µM (inactive) |
| CCOC(=O)CSC1NC(C(=O)OC)CC1OC (stereo not drawn) | > 100 µM (inactive) | > 100 µM (inactive) | 75 µM (inactive) | > 100 µM (inactive) | > 100 µM (inactive) | > 100 µM (inactive) | > 100 µM (inactive) |  | > 100 µM (inactive) | > 100 µM (inactive) | > 100 µM (inactive) | > 100 µM (inactive) | > 100 µM (inactive) | > 100 µM (inactive) | > 100 µM (inactive) |  | 67.6 µM (inactive) | > 100 µM (inactive) | > 100 µM (inactive) | > 100 µM (inactive) |
| CNc1ncc(-c2nnnn2-c2ccccc2)c(CN(C)C)n1 | > 100 µM (inactive) | > 100 µM (inactive) | > 100 µM (inactive) | > 100 µM (inactive) | > 100 µM (inactive) | > 100 µM (inactive) | > 100 µM (inactive) | > 100 µM (inactive) | > 100 µM (inactive) | > 100 µM (inactive) | > 100 µM (inactive) | > 100 µM (inactive) | > 100 µM (inactive) | > 100 µM (inactive) | > 100 µM (inactive) | > 100 µM (inactive) | > 100 µM (inactive) | > 100 µM (inactive) |  | > 100 µM (inactive) |
| COc1ccc(-c2cc(-c3ccc(Nc4ccnc5cc(C(F)(F)F)ccc45)cc3)[nH]c(=O)c2C#N)cc1 | 11.4 µM (inactive) | 39.6 µM (inactive) | > 24 µM (inactive) | 16.4 µM (inactive) | 49.7 µM (inactive) | > 100 µM (inactive) | > 41.8 µM (inactive) | > 100 µM (inactive) | 9.57 µM (inactive) | > 38.4 µM (inactive) | > 100 µM (inactive) | > 100 µM (inactive) | > 50.6 µM (inactive) | > 39.4 µM (inactive) | 27.2 µM (inactive) | 21 µM (inactive) | > 100 µM (inactive) | > 100 µM (inactive) | > 100 µM (inactive) |  |
| Nc1c(-c2nc3ccccc3s2)c2ccc([N+](=O)[O-])cc2c(=O)n1-c1cccc(C(=O)O)c1 | 21.2 µM (inactive) | 35.6 µM (inactive) | 22.8 µM (inactive) | 19.8 µM (inactive) | 24.2 µM (inactive) | 29.1 µM (inactive) | 35.5 µM (inactive) | 30.3 µM (inactive) | 23.4 µM (inactive) | 25.4 µM (inactive) | 37.8 µM (inactive) | 20.9 µM (inactive) | 20.9 µM (inactive) | 63.5 µM (inactive) |  |  | 27 µM (inactive) | 27.5 µM (inactive) | 31.9 µM (inactive) | 24.1 µM (inactive) |
| Clc1ccc(COC(Cn2ccnc2)c2ccc(Cl)cc2Cl)c(Cl)c1 (stereo not drawn) [MICONAZOLE] | 5.12 µM (inactive) | 3.23 µM (inactive) | 8.09 µM (inactive) | 13.4 µM (inactive) | 11.4 µM (inactive) | 12.1 µM (inactive) | 11.2 µM (inactive) | 13.6 µM (inactive) | 11.7 µM (inactive) | 11 µM (inactive) | 10 µM (inactive) | 13.6 µM (inactive) | 16.2 µM (inactive) |  | 12.6 µM (inactive) | 13.8 µM (inactive) | 17.5 µM (inactive) | 13.6 µM (inactive) | 10.1 µM (inactive) | 3.82 µM (inactive) |
